Measurements taken from patent US11613533B2, “Compounds useful for inhibiting RET kinase” (Eli Lilly and Company, priority 2020, dated 2023).
Changes are numbered by the printed parent chain.

Key:
[1] = target: T1, wildtype RET kinase (N-terminal GST tagged recombinant human RET cytoplasmic domain, aa 658-end) (Homo sapiens, UniProt P07949); assay: RET enzyme assay (HTRF KinEASE TK), wildtype; type: biochemical; settings: 1 mM ATP, 60 min incubation at 22° C.
T1 construct: human RET cytoplasmic domain (aa 658-end); GST (N); purchased Eurofins 14-570M
T1 sequence (P07949 658-1114 limits assumed): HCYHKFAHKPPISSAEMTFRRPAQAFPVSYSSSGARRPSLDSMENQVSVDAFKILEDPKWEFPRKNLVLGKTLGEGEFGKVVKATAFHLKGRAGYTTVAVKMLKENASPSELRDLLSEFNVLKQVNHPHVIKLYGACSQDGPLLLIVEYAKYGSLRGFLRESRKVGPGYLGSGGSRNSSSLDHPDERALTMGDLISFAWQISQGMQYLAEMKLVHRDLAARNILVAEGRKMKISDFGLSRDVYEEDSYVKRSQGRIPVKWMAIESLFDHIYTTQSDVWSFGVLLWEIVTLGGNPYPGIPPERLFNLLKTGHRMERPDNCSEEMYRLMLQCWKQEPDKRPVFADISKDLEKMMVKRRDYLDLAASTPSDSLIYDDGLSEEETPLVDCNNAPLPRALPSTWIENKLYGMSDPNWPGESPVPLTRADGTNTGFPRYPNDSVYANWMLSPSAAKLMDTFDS
Protocol: (§1) Assay A: RET Enzyme Assay
(§2) Compounds of formulas I, II, or III are screened for their ability to inhibit wildtype, V804M, and G810S mutant RET kinase using CisBio's HTRF® KinEASE™TK assay technology. N-terminal GST tagged recombinant human RET cytoplasmic domain (aa 658-end) from Eurofins ([…]; Catalog No. 14-570M) or N-terminal GST tagged recombinant human V804M mutant RET cytoplasmic domain (aa 658-end) from Millipore (1.25 nM enzyme; Catalog No. 14-760) or N-Terminal GST-tagged recombinant human G810S (aa-658-end) (1.25 nM Enzyme; produced in insect cells) is incubated with 62.5 nM TK-substrate biotin (CisBio, part of Catalog No. 62TK0PEC) and 1 mM ATP along with test compound (0.4% final DMSO in the assay) in a 1× Cisbio enzymatic buffer consisting of […], 5 mM MgCl2, 0.04% BSA and 0.05% Tween20 in a volume of 10 μL. Compounds are typically prepared in a threefold serial dilution in DMSO and added to the assay to give the appropriate final concentration. After a 40-60 min (40 min for V804M, 60 min for WT and G810S) incubation at 22° C., the reaction is quenched by adding quench solution (10 μL) containing 7.8 nM Streptavidine-XL665 and 0.5×TK-ab-Cryptate in HTRF detection buffer (all from CisBio, part of Cat. No. 62TK0PEC). After a 60-80 min incubation (60 minutes for WT, 80 minutes for V804M and G810S) at 22° C., the extent of reaction is determined using a PHERastar plate reader via HTRF detection at excitation/emission 337/665 nm. Percent of inhibition is calculated with 0% inhibition referring to control conditions containing no compound (0.4% DMSO only) and 100% inhibition represented by conditions containing no enzyme. The % inhibition values are fit to a 4 parameter logistic curve, and the determined IC50 value is defined as the estimated concentration of inhibitor at the inflexion point of the fitted curve.

[2] = target: T2, G810S mutant RET kinase (N-Terminal GST-tagged recombinant human G810S, aa-658-end) (Homo sapiens, UniProt P07949, G810S); assay: RET enzyme assay (HTRF KinEASE TK), G810S; type: biochemical; settings: 1 mM ATP, 60 min incubation at 22° C.
T2 construct: recombinant human G810S (aa-658-end); GST (N); made in house; host or cells: insect cells
T2 sequence (P07949 658-1114 G810S limits assumed): T1 sequence (P07949 658-1114 limits assumed) with G153S
Protocol: as §1, §2

IC50 [1] [nM]	IC50 [2] [nM]	Compound
< 100	< 100	CCC(C)(C)c1cc(NC(=O)C(C)c2ccc(-c3nn(C(C)C)c(N)c3C(N)=O)cc2)no1 (single isomer, unassigned; isomer 2) [Example 52, 5-Amino-1-isopropyl-3-[4-(1-[[5-(2-methylbutan-2-yl)-1,2-oxazol-3-yl]carbamoyl]ethyl)phenyl]pyrazole-4-carboxamide, Isomer 2]
< 100	< 100	CCC(C)(C)c1cc(NC(=O)C(C)c2ccc(-c3nn(C(C)C)c(N)c3C(N)=O)cc2)on1 (single isomer, unassigned; isomer 1) [Example 15, 5-Amino-1-isopropyl-3-[4-(1-[[3-(2-methylbutan-2-yl)-1,2-oxazol-5-yl]carbamoyl]ethyl)phenyl]pyrazole-4-carboxamide, Isomer 1]
< 100	< 100	CC(C(=O)Nc1cc(C(C)(C)C)sn1)c1ccc(-c2nn(C(C)C)c(N)c2C(N)=O)cc1 (single isomer, unassigned; isomer 2) [Example 80, 5-Amino-3-(4-[1-[(5-tert-butyl-1,2-thiazol-3-yl)carbamoyl]ethyl]phenyl)-1-isopropylpyrazole-4-carboxamide, isomer 2]
< 100	< 100	CC(C(=O)Nc1cc(C(C)(C)CC(F)(F)F)on1)c1ccc(-c2nn(C(C)C)c(N)c2C(N)=O)nc1 (single isomer, unassigned; isomer 2) [Example 68, 5-Amino-1-isopropyl-3-(5-(1-oxo-1-((5-(4,4,4-trifluoro-2-methylbutan-2-yl)isoxazol-3-yl)amino)propan-2-yl)pyridin-2-yl)-1H-pyrazole-4-carboxamide, Isomer 2]
< 100	< 100	CC(C(=O)Nc1cc(CC(C)(C)C)no1)c1ccc(-c2nn(C(C)C)c(N)c2C(N)=O)cc1 (single isomer, unassigned; isomer 1) [Example 1, 5-Amino-3-[4-(1-[[3-(2,2-dimethylpropyl)-1,2-oxazol-5-yl]carbamoyl]ethyl)phenyl]-1-isopropylpyrazole-4-carboxamide, Isomer 1]
< 100	< 100	CC(C(=O)Nc1cc(C2(C)CC2)no1)c1ccc(-c2nn(C(C)C)c(N)c2C(N)=O)cc1 (single isomer, unassigned; isomer 1) [Example 35, 5-Amino-1-isopropyl-3-[4-(1-[[3-(1-methylcyclopropyl)-1,2-oxazol-5-yl]carbamoyl]ethyl)phenyl]pyrazole-4-carboxamide, Isomer 1]
< 100	< 100	CCC(C)(C)c1cc(NC(=O)C(C)c2ccc(-c3nn(C(C)C)c(N)c3C(N)=O)nc2)no1 (single isomer, unassigned; isomer 2) [Example 66, 5-Amino-1-isopropyl-3-[5-(1-[[5-(2-methylbutan-2-yl)-1,2-oxazol-3-yl]carbamoyl]ethyl)pyridin-2-yl]pyrazole-4-carboxamide, Isomer 2]
< 100	< 100	CCC(C)(C)c1cc(NC(=O)C(C)c2ccc(-c3nn(C(C)C)c(N)c3C(N)=O)cn2)on1 (single isomer, unassigned; isomer 2) [Example 84, 5-Amino-1-isopropyl-3-[6-[2-[[3-(1,1-dimethylpropyl)isoxazol-5-yl]amino]-1-methyl-2-oxo-ethyl]-3-pyridyl]pyrazole-4-carboxamide, Isomer 2]
< 100	< 100	CC(C(=O)Nc1cc(C(C)(C)C(F)(F)F)no1)c1ccc(-c2nn(C(C)C)c(N)c2C(N)=O)cn1 (single isomer, unassigned; isomer 2) [Example 90, 5-Amino-1-isopropyl-3-[6-[1-methyl-2-oxo-2-[[3-(2,2,2-trifluoro-1,1-dimethyl-ethyl)isoxazol-5-yl]amino]ethyl]-3-pyridyl]pyrazole-4-carboxamide, Isomer 2]
< 100	< 100	CC(C(=O)Nc1cc(C(C)(C)C(F)(F)F)on1)c1ccc(-c2nn(C(C)C)c(N)c2C(N)=O)nc1 (single isomer, unassigned; isomer 2) [Example 64, 5-Amino-1-isopropyl-3-[5-(1-[[5-(1,1,1-trifluoro-yl)-1,2-oxazol-3-2-methylpropan-2-yl]carbamoyl]ethyl)pyridin-2-yl]pyrazole-4-carboxamide, Isomer 2]
< 100	< 100	CC(C(=O)Nc1cc(C(C)(C)C(F)(F)F)on1)c1ccc(-c2nn(C(C)C)c(N)c2C(N)=O)cc1 (single isomer, unassigned; isomer 1) [Example 81, 5-Amino-1-isopropyl-3-[4-(1-[[5-(1,1,1-trifluoro-2-methylpropan-2-yl)-1,2-oxazol-3-yl]carbamoyl]ethyl)phenyl]pyrazole-4-carboxamide, Isomer 1]
< 100	< 100	CC(C(=O)Nc1cc(C(C)(C)C(F)(F)F)no1)c1ccc(-c2nn(C(C)C)c(N)c2C(N)=O)cc1 (single isomer, unassigned; isomer 1) [Example 17, 5-Amino-1-isopropyl-3-[4-(1-[[3-(1,1,1-trifluoro-2-methylpropan-2-yl)-1,2-oxazol-5-yl]carbamoyl]ethyl)phenyl]pyrazole-4-carboxamide, Isomer 1]
< 100	< 100	CC(C(=O)Nc1cc(-c2ccc(Cl)cc2Cl)no1)c1ccc(-c2nn(C(C)C)c(N)c2C(N)=O)cn1 (single isomer, unassigned; isomer 2) [Example 94, 5-Amino-1-isopropyl-3-[6-[2-[[3-(2,4-dichlorophenyl)isoxazol-5-yl]amino]-1-methyl-2-oxo-ethyl]-3-pyridyl]pyrazole-4-carboxamide, Isomer 2]
< 100	< 100	CC(C(=O)Nc1cc(C2CC(C)(C)C2)no1)c1ccc(-c2nn(C(C)C)c(N)c2C(N)=O)cc1 (single isomer, unassigned; isomer 1) [Example 98, 5-Amino-3-[4-[2-[[3-(3,3-dimethylcyclobutyl)isoxazol-5-yl]amino]-1-methyl-2-oxo-ethyl]phenyl]-1-isopropyl-pyrazole-4-carboxamide, Isomer 1]
< 100	< 100	CC(C(=O)Nc1cc(C(C)(C)C(C)(F)F)on1)c1ccc(-c2nn(C(C)C)c(N)c2C(N)=O)nc1 (single isomer, unassigned; isomer 2) [Example 70, 5-Amino-3-[5-(1-[[5-(3,3-difluoro-2-methylbutan-2-yl)-1,2-oxazol-3-yl]carbamoyl]ethyl)pyridin-2-yl]-1-isopropylpyrazole-4-carboxamide, Isomer 2]
< 100	< 100	CC(C(=O)Nc1cc(-c2ccc(Cl)cc2Cl)no1)c1ccc(-c2nn(C(C)C)c(N)c2C(N)=O)cc1 (single isomer, unassigned; isomer 1) [Example 45, 5-Amino-3-[4-(1-[[3-(2,4-dichlorophenyl)-1,2-oxazol-5-yl]carbamoyl]ethyl)phenyl]-1-isopropylpyrazole-4-carboxamide, Isomer 1]
